Results reported in US20250127896A1, “CHIMERIC TIM4 RECEPTORS AND USES THEREOF” (CERO THERAPEUTICS HOLDINGS, INC., priority 2021, published 2025).

Tests used:
Jeko1 TMEM30A−/− cells = experiment: Uptake/engulfment of pHrodo-labeled JeKo-1 PS+ (TMEM30A−/−) cells by CER T cells; type: cell-based; settings: pHrodo label, in vitro co-culture
Experimental: FIG. 20: FACs and imaging-based detection of pHrodo dye-labeled tumor cell phagocytosis and endocytosis.
Statistical analysis was performed using 2-way ANOVA.

Kuramochi cells [1] = settings: 1.56 or 25 μM Niraparib, 48 hours
Experimental: (§1) FIG. 7A: Flow cytometry measurement of surface PtdSer. Kuramochi cells were treated with 1.56 or 25 μM Niraparib or with equivalent volume of DMSO (control). 48 hours later samples were trypsinized and stained using a Tim4-Fc followed by a fluorescently-labeled secondary antibody to the Tim4-Fc. FIG. 7B: Kuramochi cells pre-treated for ˜20 hours with 1.56 μM Niraparib were co-cultured with pCTX133 and Untransduced CD4 T cells from donor 32 at a 2:1 T cell: Kuramochi ratio and a final Niraparib concentration of 1.56 μM. […] All data were collected via IncuCyte.
(§2) In ovarian tumors, poly (ADP-ribose) polymerase (PARP) inhibitors, such as Niraparib, are clinically approved drugs which target DNA damage response pathways. Responses are rarely complete, with relapse common after treatment. To induce Ptd-Ser exposure, BRCA-2 mutated Kuramochi cell line was treated with therapeutic doses of the PARP inhibitor Niraparib.

Kuramochi cells [2] = experiment: Kuramochi co-culture with chimeric Tim4 receptor T cells and Niraparib (IncuCyte); type: cell-based; settings: Niraparib alone
Experimental: as §1, §2

[3] = system: A2780 ovarian cancer cells; experiment: Viability and phosphatidylserine exposure of A2780 cells treated with PARP inhibitors (annexin V); type: cell-based, human; settings: for effective concentration that killed 25% cells (EC25): A2780 cells; for phosphatidylserine exposure on viable A2780 cells: subtherapeutic doses, 96 hours
Experimental: Viability (FIG. 31A) and phosphatidylserine (PS) exposure (FIG. 31B) of A2780 cells treated with niraparib or olaparib (both at 0.25 to 6 μM) at 96 hours.
(§3) At day 0, media was exchanged and donor T cells from three subjects (FIG. 28) transduced with CER-1234, CER-1236, or control CER-1183 (FIG. 27A) were added at various effector:target ratios to A2780 cells treated with PARPi to assess chimeric Tim4 receptor-T cell activation, cytokine production, proliferation, and cytotoxic responses. Chimeric Tim4 receptor-T cells immunophenotyping and bulk supernatant analysis was performed on day 2 and day 5 following initiation of co-culture.
Phosphatidylserine exposure on A2780 ovarian cancer cells upon treatment with the small molecule PARP inhibitors niraparib or olaparib was evaluated by annexin v staining to determine the appropriate drug dose. Phosphatidylserine targeting Tim-4 CER constructs designed to enhance cytotoxicity and target-dependent tumor cell fragment uptake were engineered. […] CER-1250 has the same intracellular signaling domains as CER1236 but has a mutated IgV domain with AAAA substitution to abrogate phosphatidylserine binding. Niraparib (0.5 μM) and olaparib (1.5 μM) were used to expose phosphatidylserine on the surface of A2780 cells for CER T cell recognition and cytotoxicity, T-cell activation, and cytokine responses were evaluated. Uptake of antigen by CER-1236 T cells was modeled with human papilloma virus E7 antigen-expressing squamous carcinoma (SCC152) TMEM30A phospholipid flippase knockout cells. […] E7 antigen presentation by CER-1236 T cells was assayed by surface expression of HLA-DR, a marker of T cell activation, on autologous HLA-A2-restricted E7 TCR T cells.
The induction of surface phosphatidylserine expression on A2780 ovarian cells treated with the PARP inhibitors olaparib and niraparib was measured by flow cytometry (FC) using annexin V.

A2780 cells = settings: compared to untreated
Experimental: FIG. 34B: At 120 hours, the ratio of cells remaining in treated samples compared to untreated A2780 samples was quantified using the incucyte data from FIG. 34A. FIG. 34C: Proliferation of CER T cells in co-culture assays.
as §3
CER T-cell cytotoxic function was evaluated using the Incucyte® live-cell analysis system in co-culture assays with A2780 cells. A2780 cells engineered to constitutively express mCherry were pretreated with 1.5 μM olaparib, 0.5 μM niraparib or no drug for 96 hours. CER T cells (expanded for 6 days after transduction) in T-cell optimizer media containing IL-2, IL-7, and IL-15 were co-cultured with A2780 cells at an effector:target (E:T) ratio of 1:2 in the presence of the same concentrations of olaparib or niraparib.

REC-1 cells [4] = experiment: Phagocytosis of pHrodo-labeled ibrutinib-treated REC-1 cells by CER T cells; type: cell-based; settings: REC-1 pretreated 10 μM ibrutinib, 16 and 40 hours of co-culture
Excerpt: FIG. 13A: Representative flow cytometry histograms showing engulfment of pHrodo red-labeled REC-1 target cells by CER1234, CER1161, and CER1183 T cells. FIG. 13B: Graphical summary of flow cytometry data showing engulfment of pHrodo red-labeled REC-1 target cells by CER1234, CER1161, and CER1183 T cells. * P<0.01, ** P<0.001, *** P<0.0001; mean+SD, n=4. FIG. 13C: Representative fluorescence microscopy images (at 40×) showing engulfment of pHrodo red-labeled REC-1 target cells by CER1234, CER1161, and CER1183 T cells. FIG. 13D: Engulfed pHrodo-green-labeled REC-1 tumor fragments co-localize into Lyso-tracker red-labeled lysosomes.
Phagocytosis was assessed in co-culture assays of REC-1 cells with CER T cells. […] The percentage of pHrodo red-positive cells was determined by flow cytometry after 16 or 40 hours of co-culture. The localization of tumor fragments in CER T-cell lysosomal compartments was assessed in a separate experiment with REC-1 cells labeled with pHrodo green; following co-culture, all cells were labeled with Lyso-tracker red. Visualization of engulfment was performed by fluorescence microscopy. 1-way ANOVA with Dunnett's post hoc test was performed compared with untransduced T cells.

REC-1 cells [5] = experiment: CER T cell cytotoxicity against REC-1 mCherry cells with ibrutinib (Incucyte); type: cell-based; settings: REC-1 cells
Excerpt: FIG. 38: CER1236 T cells have enhanced and more complete cytotoxic effect against Ibrutinib-treated REC-1 MCL cells but not untreated REC-1 MCL cells.
Ibrutinib was washed off prior to co-culture with CER T cells. […] Total fluorescence of REC-1 mCherry cells decreased as cytotoxicity occurred.

REC-1 cells [6] = experiment: T-cell activation markers PD-1 and 4-1BB in co-culture with REC-1 cells (flow cytometry); type: cell-based; settings: co-culture with REC-1 cells in the presence of 0.5 μM ibrutinib, 96 hours
Experimental: FIGS. 15A-15B: Induction of Cell-Surface Markers of T-Cell Activation in Ibrutinib-Treated Co-Cultures of CER1183 and CER1234 T cells and REC-1 Target Cells. Samples depicted in bar graphs from left to right, untransduced, CER-1183, and CER-1234. FIG. 15A: PD-1 expression in co-cultures. FIG. 15B: 4-1BB expression in co-cultures.
T-cell activation markers programmed death-1 (PD-1) and 4-1BB were evaluated on viable CD3+ T cells by flow cytometry using commercially available fluorochrome-conjugated antibodies. […] Assays were conducted 96 hours after initiation of co-culture of CER T cells with REC-1 cells.

REC-1 cells [7] = experiment: Cytokine induction in CER T / REC-1 co-cultures (multiparametric ELISA); type: cell-based; settings: co-culture with REC-1 cells, 0.5 μM ibrutinib, 96 hours
Experimental: FIGS. 16A-16H: Induction of Cytokines in Ibrutinib-Treated Co-Cultures of CER1183 and CER1234 T cells and REC-1 Target Cells. Samples depicted in bar graphs from left to right, untransduced, CER-1183, and CER-1234. FIG. 16A: TNFα induction. FIG. 16B: IL-2 induction. FIG. 16C: IFNγ. FIG. 16D: IL-5 induction. FIG. 16E: IL-6 induction. FIG. 16F: IL-10 induction. FIG. 16G: IL-4 induction. FIG. 16H: granzyme B induction.
Cytokine induction was assessed by multiparametric ELISA using conditioned supernatants harvested after 96 hours in the cytotoxicity assay described above.
(§4) CER T-cell activation was assessed by measuring induction of IFN-gamma by plate- and cell-based assays. Single induction plate assay: varying concentrations of phosphatidylserine (PS) or phosphatidylethanolamine (PE), a control membrane phospholipid not recognized by wild type TIM-4 (wtTIM-4), were coated onto high-binding tissue culture plates. CER T cells were added and IFN-γ levels were measured 24 hours after ligand exposure by ELISA. EC50 concentrations were determined by nonlinear regression (agonist vs. response-variable slope (4 parameters)). Induction by recursive stimulation plate assay: CER T cells were added to phosphatidylserine coated plates (2.5-20 μg/mL PS coating). Five days later, CER T cells were transferred to uncoated plates with fresh T cell optimizer media for 24 hours. Then, CER T cells were transferred again to a fresh PS coated plate. Supernatant was collected to assess IFN-γ induction by ELISA at various timepoints during re-stimulation (24, 72, and 120 hours). Cell-based assay: cytokine induction was assessed by multiparametric ELISA using conditioned supernatants harvested after 120 hours from the cytotoxicity assay described below.

phosphatidylserine (PS) = experiment: Single induction plate assay: IFN-γ by CER T cells on plate-bound phosphatidylserine (ELISA); type: cell-based; settings: plate-bound PS
Excerpt: (§5) FIGS. 19A-19C: CER T cells are activated and produce IFN-γ in response to phosphatidylserine engagement in a cell-free in vitro system. FIG. 19A: IFN-γ production in response phosphatidylserine (PS). IFN-γ production was induced in CER-1236 and CER-1234 T cells stimulated with PS (FIG. 19A), but not with phosphatidylethanolamine (PE) (FIG. 19B). […] FIG. 19C: CER1236 T cells are capable of recursive stimulation in vitro. Recursive IFN-γ induction with 3 serial stimulations at the indicated time points following a 24-hour rest after the first stimulation.
as §5, with “FIG. 33A-33C:” for “FIGS. 19A-19C:”, “33A:” for “19A:”, “33A),” for “19A),”, “33B).” for “19B).”, “33C:” for “19C:”
FIG. 44 are graphs showing IFNγ production in CER1234 T cells (left) or CER1236 T cells (right) from three donors in response to titrating doses of plate-bound phosphatidylserine.
FIG. 45 are graphs showing IFNγ production in CER1234 T cells or CER1236 T cells by donor in response to increasing doses of plate-bound phosphatidylserine.
FIG. 46 are graphs showing IFNγ production in CER1234 T cells or CER1236 T cells by donor in response to increasing doses of plate-bound phosphatidylserine at day 14 post-thaw.
FIG. 47 are graphs showing T cell expansion (left), IFNγ production (center), and cell viability (right) in CER1236 T cells in response to increasing doses of plate-bound phosphatidylserine.
FIG. 48 are graphs showing T cell expansion (left), IFNγ production (center), and cell viability (right) in CER1234 T cells in response to increasing doses of plate-bound phosphatidylserine.
as §4
T cells obtained from three different donors were transduced with CER1234 or CER1236 and incubated on titrating doses of plate-bound phosphatidylserine.
24 hour IFNγ stimulation by plate-bound phosphatidylserine aligns with day 5 post-activation expansion for CER1236 T cells. […] 24 hour IFNγ stimulation by plate-bound phosphatidylserine aligns with day 5 post-activation expansion for CER1234 T cells.

Molecule	uptake/engulfment of JeKo-1 PS+ (TMEM30A−/−) tumor cell fragments (Jeko1 TMEM30A−/− cells)	effective concentration that killed 25% cells (EC25) [3]	phosphatidylserine exposure on viable A2780 cells [3]	A2780 cells eliminated, single agent (A2780 cells)	other results
CO/C1=C\C(C)=C\[C@@H](C)[C@@H](O)[C@@H](C)C/C(C)=C/C=C/[C@H](OC)[C@@H]([C@@H](C)[C@@H](O)[C@H](C)[C@@]2(O)C[C@@H](O)[C@H](C)[C@@H](C(C)C)O2)OC1=O [Bafilomycin A, reference compound]	blocked tumor cell fragment uptake				
C=C1[C@@H](C)[C@H]2[C@H](Cc3ccccc3)NC(=O)[C@]23[C@H](OC(C)=O)/C=C/[C@@](C)(O)C(=O)[C@@H](C)C/C=C/[C@H]3[C@@H]1O [Cytochalasin D, reference compound]	blocked tumor cell fragment uptake				
NC(=O)c1cccc2cn(-c3ccc([C@@H]4CCCNC4)cc3)nc12 [Niraparib]		500 nM	induce phosphatidylserine exposure on viable A2780 cells	23%	surface PtdSer (membrane phospholipid symmetry) (Kuramochi cells [1]): elicits changes in membrane phospholipid symmetry, in a dose dependent manner; growth of Kuramochi cells (Kuramochi cells [2]): effective in inhibiting growth of Kuramochi cells
O=C(c1cc(Cc2n[nH]c(=O)c3ccccc23)ccc1F)N1CCN(C(=O)C2CC2)CC1 [olaparib]		1500 nM	induce phosphatidylserine exposure on viable A2780 cells	34%	
CER1161: Tim4 binding domain-CD28tm-CD28icd-CD3zICD, SEQ ID NO:21					engulfment of pHrodo red+ target cells (REC-1 cells [4]): increased engulfment of pHrodo red+target cells relative to untransduced T cells
CER 1183: wildtype human Tim4, SEQ ID NO:20; control molecule lacking intracellular T-cell signaling domains (protein) MSKEPLILWLMIEFWWLYLTPVTSETVVTEVLGHRVTLPCLYSSWSHNSNSMCWGKDQCPYSGCKEALIRTDGMRVTSRKSAKYRLQGTIPRGDVSLTILNPSESDSGVYCCRIEVPGWFNDVKINVRLNLQRASTTTHRTATTTTRRTTTTSPTTTRQMTTTPAALPTTVVTTPDLTTGTPLQMTTIAVFTTANTCLSLTPSTLPEEATGLLTPEPSKEGPILTAESETVLPSDSWSSVESTSADTVLLTSKESKVWDLPSTSHVSMWKTSDSVSSPQPGASDTAVPEQNKTTKTGQMDGIPMSMKNEMPISQLLMIIAPSLGFVLFALFVAFLRGKLMETYCSQKHTRLDYIGDSKNVLNDVQHGREDEDGLFTL					tumor cell killing in combination with ibrutinib (REC-1 cells [5]): no additive effect with ibrutinib; PD-1 and 4-1BB expression on the T-cell surface (REC-1 cells [6]): not increased; cytokine induction: TNF-α, IFN-γ, IL-10, IL-5, granzyme B (REC-1 cells [7]): not induced; IFN-γ production in response to phosphatidylserine (phosphatidylserine (PS)): did not induce IFN-γ
